Experimental data taken from patent US7759373B2, “Large conductance calcium-activated K channel opener” (Mitsubishi Tanabe Pharma Corporation, priority 2001, dated 2010).
Structures can show the parent of a compound that is named as a salt.

test system: isolated rabbit urinary bladder; assay: Relaxation effect on potassium-induced contraction of isolated rabbit urinary bladder; type: cell-based; conditions: Oryctolagus cuniculus; 50% relaxation concentration; high-K+ (30 mM) pre-contracted rabbit bladder strips; relaxation as percentage of the maximum produced by 0.1 mM papaverine; read-out: EC50 value range
Summary of the method: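 Mucosa-free longitudinal bladder strips from male NZW rabbits, held at 37 °C in Krebs solution gassed with 95% O2/5% CO2, were precontracted with 30 mM K+. Compounds were added cumulatively (10^−8–10^−4 M), with isometric relaxation expressed relative to 0.1 mM papaverine maximum. EC50 was derived and reported as rank ranges.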

EC50 [nM] | Compound
1000 to 3000 | CCOC(=O)c1sccc1-c1nc(CC)c(-c2cccnc2)[nH]1 [Preparation example 10]
1000 to 3000 | CCCc1nc(-c2ccc(Cl)cc2)[nH]c1-c1ccccc1 [Preparation example 60]
1000 to 3000 | CCCc1nc(-c2ccc(F)cc2)[nH]c1-c1ccc(C#N)cc1 [Preparation example 95]

test system: rhythmic bladder contractions induced by substance P; assay: Inhibitory effect on the rhythmic bladder contractions induced by substance P in anesthetized rats; type: in vivo, rat; conditions: time during which frequency of rhythmic contraction was completely inhibited, 0.25 mg/kg of the compound, substance P infusion
Summary of the method: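 Urethane-anesthetized female Sprague-Dawley rats with rhythmic bladder contractions driven by i.v. substance P (0.33 μg/kg/min). Compound given i.v. in saline/0.5% Tween 80 once contractions stable 15 min; intravesical pressure monitored, duration of 100% inhibition ranked A ≥20, B ≥10, C <10 min.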

Compound | 100% inhibition time range
CCOC(=O)Cc1nc(-c2ccc(F)cc2)oc1I [Preparation Example 295] | B (A≧20>B≧10>C (minute))
COC(=O)c1nc(-c2ccc(F)cc2)oc1-c1ccsc1 [Preparation Example 622] | B (A≧20>B≧10>C (minute))
C[S+]([O-])Cc1nc(-c2ccc(F)cc2)oc1-c1ccsc1 (stereo not shown) [Preparation Example 624] | C (A≧20>B≧10>C (minute))
N#CCCc1nc(-c2ccc(F)cc2)[nH]c1-c1ccccc1 [Preparation example 62] | C (A≧20>B≧10>C (minute))
CCc1nc(-c2ccc(Cl)s2)oc1-c1cccnc1.Cl [Preparation example 63, 2-(5-chlorothiophen-2-yl)-4-ethyl-5-(3-pyridyl)oxazole hydrochloride] | C (A≧20>B≧10>C (minute))
CSCc1nc(-c2ccc(F)cc2)[nH]c1-c1cccnc1 [Preparation example 133] | C (A≧20>B≧10>C (minute))

test system: not given; assay: not given; conditions: not given

melting point | Compound
120 to 122 °C | CCCc1nc(-c2ccc(F)cc2)[nH]c1-c1cccc(OC)c1 (as salt: HCl) [Preparation example 96]
228 to 230 °C | CCCc1nc(-c2ccc(F)cc2)[nH]c1-c1cccc(F)c1 (as salt: HCl) [Preparation example 99]
186 to 189 °C | CCCc1nc(-c2ccc(F)cc2)[nH]c1-c1ccccc1C(N)=O (as salt: HCl) [Preparation example 101]
266 to 269 °C | Cc1ccc(-c2nc(CO)c(-c3cccnc3)[nH]2)cn1 (as salt: HCl) [Preparation example 114]
204 to 207 °C | COCc1nc(-c2ccc(F)cc2)[nH]c1-c1ccccc1 (as salt: HCl) [Preparation example 121]
185 to 188 °C | COCc1nc(-c2cccc(F)c2)[nH]c1-c1ccccc1 (as salt: HCl) [Preparation example 123]
251 to 255 °C | COCc1nc(-c2ccc(C)nc2)[nH]c1-c1cccnc1 (as salt: HCl) [Preparation example 127]
218 to 220 °C | CSCc1nc(-c2cccc(F)c2)[nH]c1-c1ccccc1 (as salt: HCl) [Preparation example 131]
256 to 259 °C | CSCc1nc(-c2ccc(C#N)cc2)[nH]c1-c1ccccc1 (as salt: HCl) [Preparation example 132]
198 to 200 °C | C[S+]([O-])Cc1nc(-c2cccc(F)c2)[nH]c1-c1ccccc1 (stereo not shown) (as salt: HCl) [Preparation example 136]
203 to 204 °C | C[S+]([O-])Cc1[nH]c(-c2ccc(F)cc2)nc1-c1ccccc1 (stereo not shown) (as salt: HCl) [Preparation example 639]
245 to 248 °C | COc1ccccc1-c1c[nH]c(-c2ccc(F)cc2)n1 (as salt: hydrochloride) [Preparation example 66, 2-(4-fluorophenyl)-4-(2-methoxyphenyl)imidazole]
219 to 221 °C (dec.) | CCc1nc(-c2ccc(F)cc2)[nH]c1Br (as salt: hydrochloride) [Preparation example 77, 5-bromo-4-ethyl-2-(4-fluorophenyl)-imidazole]
253 to 255 °C | CNc1[nH]c(-c2ccc(F)cc2)nc1-c1ccccc1 (as salt: hydrochloride) [Preparation example 107, 5-methylamino-2-(4-fluorophenyl)-4-phenylimidazole]
179 to 180 °C | OCCc1[nH]c(-c2ccc(Cl)s2)nc1-c1cccnc1 (as salt: hydrochloride) [Preparation example 146, 2-(5-chloro-thiophen-2-yl)-5-hydroxyethyl-4-(3-pyridyl)imidazole]
197 to 198 °C | CCOC(=O)c1nc(-c2ccc(F)cc2)[nH]c1CC [Preparation example 69, ethyl 5-ethyl-2-(4-fluorophenyl)imidazol-4-carboxylate]
168 to 170 °C | CCCc1c[nH]c(-c2ccc(F)cc2)n1 [Preparation example 76]
240 to 242 °C | CCCc1nc(-c2ccc(F)cc2)[nH]c1-c1ccc(C#N)cc1 [Preparation example 95]
245 to 247 °C | O=CNc1[nH]c(-c2ccc(F)cc2)nc1-c1ccccc1 [Preparation example 105, 5-formylamino-2-(4-fluorophenyl)-4-phenylimidazole]
256 to 258 °C | O=CCNc1[nH]c(-c2ccc(F)cc2)nc1-c1ccccc1 [Preparation example 106, 5-formylmethylamino-2-(4-fluorophenyl)-4-phenyl-imidazole]
201 to 202 °C | O=CCCNc1[nH]c(-c2ccc(F)cc2)nc1-c1ccccc1 [Preparation example 111, 5-formylethylamino-2-(4-fluorophenyl)-4-phenylimidazole]
225 to 228 °C | OCc1nc(-c2ccc(F)cc2)[nH]c1-c1cccnc1 [Preparation example 113]
232 to 234 °C | OCc1nc(-c2cccc(F)c2)[nH]c1-c1ccccc1 [Preparation example 115]
240 to 243 °C | OCc1nc(-c2ccc(F)cc2)[nH]c1-c1ccccc1 [Preparation example 117]
172 to 174 °C | CSCc1nc(-c2ccc(F)cc2)[nH]c1-c1cccnc1 [Preparation example 133]
209 to 211 °C | CSCc1nc(-c2ccc(C#N)cc2)[nH]c1-c1cccnc1 [Preparation example 134]

Second part, the compound before the results:

Compound | melting point
O=C(O)Cc1nc(-c2ccc(F)cc2)oc1-c1ccccc1 (as salt: Na) [Preparation Example 153] | > 300 °C
CCOC(=O)Cc1nc(-c2ccc(OC)cc2)oc1-c1cccs1 [Preparation Example 154] | 105 to 107 °C
CCOC(=O)Cc1nc(-c2ccc(F)cc2)oc1-c1ccccc1F [Preparation Example 161] | 88 to 89 °C
CCOC(=O)Cc1nc(-c2ccc(F)cc2)oc1-c1cc(C)cs1 [Preparation Example 163] | 138 to 139 °C
O=C(O)Cc1nc(-c2ccc(F)cc2)oc1-c1cccs1 [Preparation Example 189] | 208 to 209 °C
CCOC(=O)Cc1nc(-c2ccc(Cl)cc2)oc1-c1ccco1 [Preparation Example 191] | 109 to 111 °C
O=C(O)Cc1nc(-c2ccc(Cl)cc2)oc1-c1cccs1 [Preparation Example 192] | 214 to 215 °C
CCOC(=O)Cc1nc(-c2ccc(C)cc2)oc1-c1cccs1 [Preparation Example 196] | 125 to 127 °C
COc1ccc(-c2nc(CC(=O)O)c(-c3ccsc3)o2)cc1 [Preparation Example 200] | 198 to 199 °C
CCOC(=O)Cc1nc(-c2ccc(F)cc2)oc1I [Preparation Example 295] | 120 to 122 °C
CCOC(=O)Cc1nc(-c2ccc(OC)c(F)c2)oc1-c1cccs1 [Preparation Example 382] | 117 to 117.5 °C
CCOC(=O)Cc1nc(-c2ccc(N(C)C)cc2)oc1-c1ccc(Cl)s1 [Preparation Example 384] | 118 to 119 °C
CCOC(=O)Cc1nc(-c2cc3ccccc3s2)oc1-c1ccsc1 [Preparation Example 408] | 155 to 156.5 °C
CCOC(=O)Cc1nc(-c2ccc(SC)cc2)oc1-c1ccsc1 [Preparation Example 409] | 77 to 78 °C
CCOC(=O)Cc1nc(-c2ccc(OC)c(C)c2)oc1-c1ccsc1 [Preparation Example 410] | 84 to 86 °C
CCOC(=O)Cc1nc(-c2ccc3ncccc3c2)oc1-c1ccsc1 [Preparation Example 411] | 130 to 133 °C

Compound | melting point
CCOC(=O)Cc1nc(-c2ccc(COC(C)=O)cc2)oc1-c1ccc(Cl)s1 [Preparation Example 426] | 112 to 113 °C
CCOC(=O)Cc1nc(-c2cccc(C)c2)oc1-c1cccs1 [Preparation Example 427] | 80 to 81 °C
CCOC(=O)Cc1nc(-c2ccc3ccccc3n2)oc1-c1ccsc1 [Preparation Example 428] | 168.5 to 169.5 °C
CCOC(=O)Cc1nc(-c2cnc3occc3c2)oc1-c1ccc(Cl)s1 [Preparation Example 429] | 145 to 146 °C
O=C(O)Cc1nc(-c2ccc(F)cc2)oc1-c1ccsc1 [Preparation Example 618] | 207 to 209 °C
OCCc1nc(-c2ccc(F)cc2)oc1-c1ccsc1 [Preparation Example 619] | 110 to 111 °C
COC(=O)c1nc(-c2ccc(F)cc2)oc1-c1ccsc1 [Preparation Example 622] | 213 to 214 °C
C[S+]([O-])Cc1nc(-c2ccc(F)cc2)oc1-c1ccsc1 (stereo not shown) [Preparation Example 624] | 173 to 174.5 °C
Clc1ccc(-c2nc(Cc3nnn[nH]3)c(-c3ccccc3)s2)cc1 [Preparation Example 632, 5-[2-(4-chlorophenyl)-5-phenyl-thiazol-4-ylmethyl]tetrazole] | 213 to 214 °C
CCOC(=O)c1sccc1-c1nc(CC)c(-c2cccnc2)[nH]1 [Preparation example 10] | 127 to 129 °C
CCOC(=O)c1cc(-c2nc(CC)c(-c3cccnc3)[nH]2)cs1 [Preparation example 11] | 187 to 189 °C
NC(=O)Cc1nc(-c2ccc(F)cc2)[nH]c1-c1ccsc1 [Preparation example 44] | 200 to 202 °C (dec.)
Fc1ccc(-c2nc(C3CCCCC3)c(-c3ccsc3)[nH]2)cc1 [Preparation example 45] | 171 to 173 °C
CCCc1nc(-c2ccc(Cl)cc2)[nH]c1-c1ccccc1 [Preparation example 60] | 147 to 149 °C
N#CCCc1nc(-c2ccc(F)cc2)[nH]c1-c1ccccc1 [Preparation example 62] | 176 to 178 °C
CCc1nc(-c2ccc(Cl)s2)oc1-c1cccnc1.Cl [Preparation example 63, 2-(5-chlorothiophen-2-yl)-4-ethyl-5-(3-pyridyl)oxazole hydrochloride] | 201 to 204 °C
